Where two headings read alike, the source gives them in different places.
How the values were obtained:
APP wild-type cells = assay: Aβ modulation in APP wild-type cells; format: cell-based; conditions: APP wild-type cells; read-out: EC50, lowering of Aβ42
Protocol: (A) and (B) The sequences of wildtype (WT; A) APP and the mutated substrate (B) containing the homologous region (italic, underlined) of the NOTCH transmembrane domain (TMD) in APP where GSMs are hypothesized to bind. […] Bottom row, FT-1 ([…]) raised Aβ42 200% in APP wild-type cells (A); however, in APP-NOTCH TMD cells (B), FT-1 caused minimal changes in the Aβ42 (95%) or Aβ40 (90%) signal. Data are presented as amyloid-β percentage of control±s.e.m., n=3.
FIG. 19. Substitution of human Notch sequence in the APP transmembrane domain (TMD) changes sensitivity to modulation. (A) Site-directed mutagenesis was used to exchange the analogous region of the human Notch TMD (bold and underlined) for a section (bold and underlined) of wild-type APP (APPwt) we have shown to be labeled by GSMs. The new substrate (APP-Notch TMD) is cleaved by γ-secretase primarily after valine and alanine residues corresponding to 40 and 42 in APPwt (arrows). […] The beginning (1) N-terminal amino acid (AA) to the ending C-terminal AA is shown above each peak, with the molecular weight (m/z) below. 1-40 and 1-42 are detected as the two major species in APP-Notch TMD conditioned media. It should be noted that the mutagenesis strategy to create APPNotch TMD led to a single AA deletion relative to APPwt. […] Both cell lines were treated (6 hours) with L-685,458 (10 μM), which is hypothesized to target the active site aspartate residues, media was collected, and analyzed for changes in Aβ levels. […]
To test the hypothesis that mutation of the GSM binding site in APP should alter sensitivity to GSMs, a portion of the GSM binding site in APP was exchanged with the analogous region of human NOTCH (FIGS. 18A and 18B; FIG. 19). […] Although the molecular weight and abundance of each chimeric peptide differed from amyloid-β peptides from APP, the main species produced from the APP-NOTCH TMD construct had identical C-termini to Ab1-40 and Ab1-42, and could be quantified by enzyme-linked immunosorbent assays (ELISAs; FIG. 19). […]

[1] = system: Human H4 neuroglioma cells expressing wild-type APP695 protein or CTF105; assay: Cell-based screens for amyloid-β modulation (H4 cells, ELISA); conditions: for EC50: Homo sapiens, cellular dose-response
Excerpt: Photoaffinity labelling. All experiments used the following general protocol. […] Cell-based screens for amyloid-β modulation. […] Statistical analysis.

γ-secretase = γ-secretase (Homo sapiens, UniProt P49768); assay: GSM activity of compounds that bind Aβ or Aβ amyloid (cell-based or cell-free γ-secretase assays, FIG. 12); conditions: two doses (10 and 100 μM)
Protocol: A literature search was performed to identify compounds reported to bind to the Aβ peptide directly or amyloid. These candidates were initially tested in cell-based assays or cell-free in vitro γ-secretase assays at two doses (10 and 100 μM).
(§1) Finally, X-34 was tested for its ability to modulate Aβ42 amounts in an APP transgenic mouse (Tg2576).

APP-CTF = target: T1, APP-CTF (Homo sapiens, UniProt P05067); assay: Photoaffinity labelling of APP and APP CTF in H4 cell membrane fractions and competition; format: binding; conditions: photoprobe 25 μM, competitor 200 μM
T1 construct: this protein was designated α-secretase-derived APP CTF (CTF83) on the basis of molecular weight; expressed in transfected cells
Protocol: Photoaffinity labelling. All experiments used the following general protocol. Samples (recombinant or synthetic peptides, cell lysates and membrane preparations) were exposed in borosilicate test tubes to ultraviolet light (350 nm) in a Rayonet Photoreactor R100 (RPR-3500 lamps, Southern New England Ultra Violet Company) in a cold room (4° C.) for 30 minutes or as otherwise noted. Crosslinked samples were analyzed by ELISA for biotin incorporation, or analyzed directly by SDS-PAGE (Criterion-XT, Bio-Rad), or after precipitation with streptavidin ultralink plus beads (Pierce). After immunblotting, proteins were detected using chemiluminesence (ECL Plus, GEHealthcare) or near-infrared fluorescence (LiCor Odyssey). Full-length APP and APP CTFs (CTF83, CTF99) were detected with CT20, a rabbit polyclonal antibody against the C-terminus of APP. Biotin was detected with an affinity-purified rabbit polyclonal antibody (Bethyl). Cell-based screens for amyloid-β modulation.

H4 APPwt cells = assay: Immunoprecipitation-mass spectrometry of media from H4 APPwt cells; format: cell-based, human
Protocol: FIG. 14. Amyloid binding compounds alter the cleavage of Aβ similar to other established γ-secretase modulators Immunoprecipitation-mass spectrometry studies were conducted on media from H4 APPwt cells grown in the presence of test compounds for 16 hours. Conditions were: control (DMSO, 0.5%), sulindac sulfide (SS; 25 μM), chrysamine g (CG; 25 μM), and X-34 (25 μM). SS was included as a control GSM known to reduce Aβ42 and increase Aβ38. Spectra shown are representative of two experiments with 2-3 replicates each. Identified Aβ peptides based on calculated mass (m/z) are indicated above the peaks.

Aβ(1-42) = Aβ(1-42) (Homo sapiens, UniProt P05067); assay: Fluorescence titration and saturation binding of Aβ(1-42) with X-34
Protocol: Fluorescence titration and saturation binding of Aβ(1-42) with X-34. Incremental increases in fluorescence (ΔF) when Aβ(1-42) was included at the indicated total concentrations of X-34 were fitted to eq. 1.
as §1

Aβ(1-42), sequence (P05067 672-713 limits assumed): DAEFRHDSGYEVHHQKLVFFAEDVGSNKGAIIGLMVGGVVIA
T1 sequence (P05067 688-770 limits assumed): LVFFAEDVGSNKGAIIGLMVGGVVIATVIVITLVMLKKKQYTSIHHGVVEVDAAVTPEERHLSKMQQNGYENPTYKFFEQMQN

EC50 (APP wild-type cells): 5.9 µM
EC50 ([1]; read-out: EC50, lowering of Aβ40): 60.7 µM
EC50 ([1]; read-out: EC50, lowering of Aβ42): 13.7 µM
GSM activity (γ-secretase): Aβ42-lowering
competition of APP-CTF labeling by Fen-B and Flurbi-BpB (APP-CTF): decreases labeling of APP-CTF
Kd (Aβ(1-42)): 12.1 ± 4.7 µM
SMILES: O=C(O)c1cc(C=Cc2ccc(C=Cc3ccc(O)c(C(=O)O)c3)cc2)ccc1O [X-34, 1,4-bis(3-carboxy-4-hydroxyphenylethenyl)-benzene]
total amyloid-β amounts [1]: did not decrease
Aβ42 levels ([1]; H4 cells expressing APP): decrease
shorter amyloid-β (IP-MS) (H4 APPwt cells): increased amounts of shorter amyloid-β
Aβ33 levels (IP-MS) (H4 APPwt cells; 25 μM, 16 hours): raise Aβ33 levels more effectively than SS
levels of Aβ42 (IP-MS) (H4 APPwt cells; 25 μM, 16 hours): consistently decrease levels of Aβ42

From US20110021471A1, “REDUCING Abeta42 LEVELS AND Abeta AGGREGATION” (priority 2007, published 2011)
